Some test systems named below: OVCAR-8 ovarian; SF-268 CNS; DLD-1 colon; XF 498 CNS; LXFL 529 NSCLC; DMS 114 small cell lung; SNB-78 CNS; HOP-18 NSCLC; M19-MEL melanoma; DMS 273 small cell lung; KM20L2 colon.
Common to all, as to assay: inhibition of tumour cell growth, NCI panel, 48 h

Among the data in PubChem BioAssay (NCI) are TGI values, retold here.

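Each compound was tested at five concentrations against cells in 96-well plates for 48 hours. At the TGI there is no net growth.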 Bounds are passed on as bounds.

Regarding `Cc1oc2c(c1C)S(=O)(=O)C(C#N)C(c1ccccc1)N2` (stereo unspecified), the TGI in the test with OVCAR-8 ovarian and in the test with SF-268 CNS was > 100 µM throughout.
With `CCN(CC)C1Oc2cc3c(cc2C(c2ccc(OC)cc2)C1C)OCO3` (stereo unspecified), the figures for the TGI in the test with OVCAR-8 ovarian and with SF-268 CNS were 44.9 µM and 50.1 µM, respectively.
Consider `Cc1ccc2nc(CN3CCCC(O)C3)cc(=O)n2c1` (stereo unspecified), for which the TGI with OVCAR-8 ovarian and with SF-268 CNS was > 100 µM throughout.
As for `CCN(CC)C(=C(C(Cl)=C(Cl)Cl)[N+](=O)[O-])N(CC)CC`, the TGI in the test with OVCAR-8 ovarian and with SF-268 CNS was > 100 µM in each case.
Regarding `O=[n+]1c2ccccc2n([O-])c2ccccc21`, the TGI in the test with OVCAR-8 ovarian and in the test with SF-268 CNS was > 100 µM throughout.
Take `CC(=O)Oc1cc2c(n(C)c1=O)-c1ccccc1C2`: the TGI with OVCAR-8 ovarian and in the test on SF-268 CNS was > 100 µM throughout.
Take `COC1CC(C)C(OC)C2=CC(=O)C=C(NC(=O)/C(C)=C/C=C\C(C)C(OC(N)=O)/C(C)=C\C(C)C1OC)C2=O` (stereo unspecified): the TGI came out at 18.3 µM in the test with OVCAR-8 ovarian; 2.58 µM with DLD-1 colon; 3.13 µM with XF 498 CNS; 1.8 µM in the test with LXFL 529 NSCLC; 6.98 µM with SF-268 CNS; 17.8 µM in the test on DMS 114 small cell lung. In addition, the results for the TGI in the test on SNB-78 CNS, in the test on HOP-18 NSCLC and in the test on M19-MEL melanoma were 13.6 µM, 15.7 µM and 6.62 µM, respectively.
As to `O=C(c1cc(Cl)cc(Cl)c1)N(C(=O)N1CCN(c2ccccc2)CC1)c1ccccc1`, the TGI with OVCAR-8 ovarian and in the test with SF-268 CNS was > 100 µM throughout.
For the compound `COC(=O)C1=C(O)C(C(=O)OC)[C@]2(O)[C@H](C(=O)OC)[C@H]1C[C@@H](c1ccc(F)cc1)[C@H]2C(=O)OC` (stereo partly specified), the TGI with OVCAR-8 ovarian came to 86.8 µM; in the test on SF-268 CNS, 95 µM.
On the same counts, the results for `COc1cc(OCc2ccc3nc(-c4ccccc4)c(Cl)nc3c2)cc(OC)c1OC` are > 100 µM and > 100 µM.
On the same counts, the results for `COc1cc(S(=O)(=O)Nc2nc(-c3ccc(N4C(=O)CSC4c4cccs4)cc3)cs2)ccc1Cl` (stereo unspecified) are > 100 µM and > 100 µM.
`Cc1oc2c(c1C)S(=O)(=O)C(C#N)=C(c1ccccc1)N2`: the TGI with OVCAR-8 ovarian and in the test on SF-268 CNS was > 100 µM in each case.
As to `COC(=O)C(Cc1c[nH]c2ccccc12)N=C1Nc2ccncc2S(=O)(=O)N1c1ccccc1` (stereo unspecified), the TGI with OVCAR-8 ovarian and in the test on SF-268 CNS was > 100 µM in each case.
Consider `N=c1oc2ccc([N+](=O)[O-])cc2cc1C(=O)NCc1ccccc1`, for which the TGI with OVCAR-8 ovarian was 33.2 µM; with SF-268 CNS, 40.6 µM.
For the compound `c1ccc2c(C3CCN(CCN4CCOCC4)C3)c[nH]c2c1` (stereo unspecified), the TGI with OVCAR-8 ovarian and with SF-268 CNS was > 100 µM each time.
For `Ic1ncnc2c1ncn2C1CCCO1` (stereo unspecified), the TGI in the test with DMS 273 small cell lung, in the test on KM20L2 colon, in the test on OVCAR-8 ovarian, in the test on DLD-1 colon, in the test with XF 498 CNS and in the test on SF-268 CNS was > 100 µM throughout. Also, the TGI in the test with DMS 114 small cell lung, in the test on SNB-78 CNS, in the test with HOP-18 NSCLC and in the test on M19-MEL melanoma was > 100 µM in each case.
As for `O=C(Nc1cccc2ccccc12)Nn1cnnc1`, the TGI in the test on OVCAR-8 ovarian and with SF-268 CNS was > 100 µM each time.
On to `N#CC(C#N)N=Cc1ccncc1`, for which the TGI in the test with OVCAR-8 ovarian and in the test on SF-268 CNS was > 100 µM in each case.
Regarding `OC1(CCc2ccccc2)COC(C(F)(F)F)(C(F)(F)F)C1` (stereo unspecified), the TGI in the test on OVCAR-8 ovarian and in the test with SF-268 CNS was > 100 µM each time.
As to `COc1ccc2c(c1)/C(=C\c1c(C)nc3n1CCS3)C(=O)N2`, in the test with OVCAR-8 ovarian, the TGI was > 100 µM.
On to `CC(=O)C(I(OS(=O)(=O)c1ccc(C)cc1)c1ccccc1)=P(c1ccccc1)(c1ccccc1)c1ccccc1`, for which the TGI in the test on OVCAR-8 ovarian was > 100 µM; with SF-268 CNS, 80.4 µM.
With `Nc1nc(N)c2cc(Sc3ccc4nc(N)nc(N)c4c3)ccc2n1`, the TGI with OVCAR-8 ovarian and in the test on SF-268 CNS was > 100 µM in each case.
Consider `O=C1CC(=O)NC(=NN2C(=O)/C(=C/C(=O)c3ccco3)N=C2c2ccccc2)N1`, for which the TGI with OVCAR-8 ovarian and with SF-268 CNS was > 100 µM in each case.
As to `O=C1NC(=O)C(Cc2ccccc2)(c2cccnc2)N1` (stereo unspecified), the TGI in the test on OVCAR-8 ovarian and in the test with SF-268 CNS was > 100 µM each time.
With `CC(C)(C)O/C=C1/C(=O)OC2C[C@@H](O[Si](C)(C)C(C)(C)C)CC12` (stereo partly specified), the TGI in the test with OVCAR-8 ovarian and in the test with SF-268 CNS was > 100 µM each time.
On to `CN(C)C=C1C(=O)c2c(Br)sc(Br)c2C1=O`, for which the TGI worked out at 72.3 µM with OVCAR-8 ovarian and 32.5 µM in the test with SF-268 CNS.
The like results for `COc1cc(C2SCC(=O)N2c2ccccc2Cl)cc(OC)c1OC` (stereo unspecified) were, in that order, > 100 µM and > 100 µM.
For the compound `CN1C2CCC1CC(CCOC(c1ccc(F)cc1)c1ccc(F)cc1)C2` (stereo unspecified), the TGI was determined as 32.1 µM with OVCAR-8 ovarian and 29.2 µM in the test with SF-268 CNS.
On the same counts, the results for `Cc1ccc(-n2cnc3c(N)nc(N)nc32)cc1` are > 100 µM and > 100 µM.
For the compound `CNc1c2cccc(C)c2nc2c(C(=O)NCCN(C)C)cccc12`, the TGI came to 0.297 µM with OVCAR-8 ovarian and 0.318 µM in the test with SF-268 CNS.
Regarding `N#C/C(=C\c1cn(Cc2ccccc2)c2ccccc12)c1nn(-c2ccccc2)c(N)c1C#N`, the TGI with OVCAR-8 ovarian turned out to be 21.9 µM; with SF-268 CNS, 91.7 µM.
